The target of test [1] is T1, Peroxisome proliferator-activated receptor alpha (Homo sapiens, UniProt Q07869).
T1 sequence (Q07869 whole entry): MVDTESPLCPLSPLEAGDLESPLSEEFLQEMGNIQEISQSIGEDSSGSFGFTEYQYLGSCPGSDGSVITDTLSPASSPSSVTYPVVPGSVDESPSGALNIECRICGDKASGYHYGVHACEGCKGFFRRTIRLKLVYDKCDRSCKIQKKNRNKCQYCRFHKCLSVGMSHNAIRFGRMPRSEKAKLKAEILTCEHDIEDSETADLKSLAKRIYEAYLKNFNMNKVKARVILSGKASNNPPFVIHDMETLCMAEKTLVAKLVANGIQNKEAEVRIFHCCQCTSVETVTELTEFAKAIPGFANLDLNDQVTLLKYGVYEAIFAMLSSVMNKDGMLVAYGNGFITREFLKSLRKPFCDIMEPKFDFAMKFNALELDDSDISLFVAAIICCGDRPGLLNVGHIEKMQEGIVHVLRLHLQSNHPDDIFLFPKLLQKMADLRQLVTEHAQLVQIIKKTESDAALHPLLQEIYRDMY
In kind it is functional.

Test [2] deals with T2, D(1A) dopamine receptor (Homo sapiens, UniProt P21728). In kind it is functional, cell-based.
T2 sequence (P21728 whole entry): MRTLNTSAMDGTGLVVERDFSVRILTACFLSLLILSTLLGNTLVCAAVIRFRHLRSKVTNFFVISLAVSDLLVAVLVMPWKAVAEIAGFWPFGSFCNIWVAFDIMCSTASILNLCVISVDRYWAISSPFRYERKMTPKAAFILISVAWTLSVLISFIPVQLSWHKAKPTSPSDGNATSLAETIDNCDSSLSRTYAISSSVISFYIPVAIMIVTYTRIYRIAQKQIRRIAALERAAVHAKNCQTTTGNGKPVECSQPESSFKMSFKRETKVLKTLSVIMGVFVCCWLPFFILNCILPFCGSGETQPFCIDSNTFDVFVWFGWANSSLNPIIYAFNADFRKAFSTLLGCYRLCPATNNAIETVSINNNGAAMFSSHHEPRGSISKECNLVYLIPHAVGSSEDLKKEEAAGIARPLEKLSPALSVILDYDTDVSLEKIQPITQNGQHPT
Test [3] addresses T2, D(1A) dopamine receptor.
For test [4], the target named is Prothrombin (Homo sapiens, UniProt P00734). The test is classed as functional.
Test [5] addresses Gamma-aminobutyric acid receptor subunit alpha-1 (Rattus norvegicus, UniProt P62813).
Test [6] concerns the target Histamine H3 receptor (Homo sapiens, UniProt Q9Y5N1).
The target of test [7] is T3, Amine oxidase [flavin-containing] A (Homo sapiens, UniProt P21397).
T3 sequence (P21397 whole entry): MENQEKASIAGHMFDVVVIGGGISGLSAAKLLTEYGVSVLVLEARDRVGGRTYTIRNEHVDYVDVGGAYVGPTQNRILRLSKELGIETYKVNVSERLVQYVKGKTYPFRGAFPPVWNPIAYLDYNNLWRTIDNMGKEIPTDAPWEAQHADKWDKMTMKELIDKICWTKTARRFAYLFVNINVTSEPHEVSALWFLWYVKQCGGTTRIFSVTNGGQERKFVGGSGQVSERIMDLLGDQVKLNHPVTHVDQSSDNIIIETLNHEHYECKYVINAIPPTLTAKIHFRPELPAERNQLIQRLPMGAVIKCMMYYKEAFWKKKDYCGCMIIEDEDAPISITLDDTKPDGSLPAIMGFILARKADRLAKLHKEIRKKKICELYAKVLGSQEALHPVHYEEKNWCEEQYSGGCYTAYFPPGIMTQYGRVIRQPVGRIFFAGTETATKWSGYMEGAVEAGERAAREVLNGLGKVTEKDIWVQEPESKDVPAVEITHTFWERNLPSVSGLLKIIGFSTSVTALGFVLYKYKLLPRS
In kind it is functional.

Test [8] has as its target 3',5'-cyclic-AMP phosphodiesterase 4A (Homo sapiens, UniProt P27815). The test is classed as functional.
Test [9] concerns the target T4, Progesterone receptor (Homo sapiens, UniProt P06401).
T4 sequence (P06401 whole entry): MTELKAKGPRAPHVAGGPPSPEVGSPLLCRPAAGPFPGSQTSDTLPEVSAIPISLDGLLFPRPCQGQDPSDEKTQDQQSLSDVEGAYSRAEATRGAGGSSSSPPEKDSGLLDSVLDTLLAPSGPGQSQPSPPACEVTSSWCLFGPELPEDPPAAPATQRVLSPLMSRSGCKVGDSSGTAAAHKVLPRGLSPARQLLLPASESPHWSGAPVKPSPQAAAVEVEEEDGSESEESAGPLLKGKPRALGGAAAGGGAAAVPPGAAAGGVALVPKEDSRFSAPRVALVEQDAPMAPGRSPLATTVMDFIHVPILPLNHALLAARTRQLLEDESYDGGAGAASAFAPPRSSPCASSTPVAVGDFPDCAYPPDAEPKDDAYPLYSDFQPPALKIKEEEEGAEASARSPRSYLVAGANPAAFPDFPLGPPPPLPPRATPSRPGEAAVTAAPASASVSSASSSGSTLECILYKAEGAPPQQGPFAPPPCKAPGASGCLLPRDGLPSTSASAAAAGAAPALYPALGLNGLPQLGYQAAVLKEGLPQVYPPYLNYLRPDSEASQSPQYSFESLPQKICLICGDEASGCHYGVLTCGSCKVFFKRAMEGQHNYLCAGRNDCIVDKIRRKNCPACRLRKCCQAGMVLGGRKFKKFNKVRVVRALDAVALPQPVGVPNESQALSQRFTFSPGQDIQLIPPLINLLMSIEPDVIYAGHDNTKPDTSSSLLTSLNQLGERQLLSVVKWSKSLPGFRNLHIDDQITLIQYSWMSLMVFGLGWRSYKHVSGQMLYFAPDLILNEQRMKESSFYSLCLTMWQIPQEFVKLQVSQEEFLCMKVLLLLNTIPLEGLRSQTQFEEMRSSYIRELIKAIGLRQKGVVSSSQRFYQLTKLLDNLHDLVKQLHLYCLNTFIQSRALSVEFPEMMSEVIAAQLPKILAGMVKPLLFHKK

The target of test [10] is Prostaglandin G/H synthase 1 (Homo sapiens, UniProt P23219). The test is classed as functional.
Prostaglandin G/H synthase 1, sequence (P23219 whole entry): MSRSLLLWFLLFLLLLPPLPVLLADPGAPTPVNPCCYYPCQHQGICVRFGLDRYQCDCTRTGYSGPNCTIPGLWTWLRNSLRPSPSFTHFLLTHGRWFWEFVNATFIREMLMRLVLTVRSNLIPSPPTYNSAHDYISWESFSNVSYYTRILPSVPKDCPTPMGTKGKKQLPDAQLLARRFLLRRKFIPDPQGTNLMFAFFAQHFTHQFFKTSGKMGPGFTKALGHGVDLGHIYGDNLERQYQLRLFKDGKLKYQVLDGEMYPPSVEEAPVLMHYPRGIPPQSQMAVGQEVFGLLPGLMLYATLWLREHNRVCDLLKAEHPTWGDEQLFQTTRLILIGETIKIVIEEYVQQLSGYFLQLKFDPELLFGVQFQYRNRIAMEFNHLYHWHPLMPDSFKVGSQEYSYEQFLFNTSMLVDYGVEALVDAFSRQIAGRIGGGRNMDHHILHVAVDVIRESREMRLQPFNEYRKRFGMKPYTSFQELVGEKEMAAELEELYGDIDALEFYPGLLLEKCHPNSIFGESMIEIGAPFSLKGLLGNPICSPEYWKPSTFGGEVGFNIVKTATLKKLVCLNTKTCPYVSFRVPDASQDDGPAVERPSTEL
The target of test [11] is T5, Thromboxane A2 receptor (Homo sapiens, UniProt P21731).
T5 sequence (P21731 whole entry): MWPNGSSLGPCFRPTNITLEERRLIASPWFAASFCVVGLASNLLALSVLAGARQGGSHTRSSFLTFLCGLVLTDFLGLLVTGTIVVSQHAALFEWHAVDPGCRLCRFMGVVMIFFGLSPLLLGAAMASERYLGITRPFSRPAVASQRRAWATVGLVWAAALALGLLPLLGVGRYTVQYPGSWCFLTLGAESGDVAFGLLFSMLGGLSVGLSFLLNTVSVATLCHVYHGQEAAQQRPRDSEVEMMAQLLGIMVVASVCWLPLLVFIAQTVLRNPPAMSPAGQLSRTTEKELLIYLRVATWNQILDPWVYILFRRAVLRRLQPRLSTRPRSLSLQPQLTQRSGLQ
The test is classed as functional, cell-based.

Bounds are passed on as bounds.
Also: assay procedure not described here.

Gamma-aminobutyric acid receptor subunit alpha-1, sequence (P62813 whole entry): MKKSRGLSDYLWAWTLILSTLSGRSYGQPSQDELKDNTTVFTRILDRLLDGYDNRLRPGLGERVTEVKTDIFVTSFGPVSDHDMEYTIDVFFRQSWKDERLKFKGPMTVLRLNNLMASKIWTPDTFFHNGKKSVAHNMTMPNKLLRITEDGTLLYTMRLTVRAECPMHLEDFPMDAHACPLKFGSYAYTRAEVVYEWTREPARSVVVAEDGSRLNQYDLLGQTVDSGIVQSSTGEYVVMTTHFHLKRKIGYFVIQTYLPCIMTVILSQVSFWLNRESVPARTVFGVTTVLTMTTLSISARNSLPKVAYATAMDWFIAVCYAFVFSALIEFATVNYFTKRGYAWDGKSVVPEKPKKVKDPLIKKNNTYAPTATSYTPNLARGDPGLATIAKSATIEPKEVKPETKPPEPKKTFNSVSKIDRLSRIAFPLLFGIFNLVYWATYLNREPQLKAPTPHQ
Histamine H3 receptor, sequence (Q9Y5N1 whole entry): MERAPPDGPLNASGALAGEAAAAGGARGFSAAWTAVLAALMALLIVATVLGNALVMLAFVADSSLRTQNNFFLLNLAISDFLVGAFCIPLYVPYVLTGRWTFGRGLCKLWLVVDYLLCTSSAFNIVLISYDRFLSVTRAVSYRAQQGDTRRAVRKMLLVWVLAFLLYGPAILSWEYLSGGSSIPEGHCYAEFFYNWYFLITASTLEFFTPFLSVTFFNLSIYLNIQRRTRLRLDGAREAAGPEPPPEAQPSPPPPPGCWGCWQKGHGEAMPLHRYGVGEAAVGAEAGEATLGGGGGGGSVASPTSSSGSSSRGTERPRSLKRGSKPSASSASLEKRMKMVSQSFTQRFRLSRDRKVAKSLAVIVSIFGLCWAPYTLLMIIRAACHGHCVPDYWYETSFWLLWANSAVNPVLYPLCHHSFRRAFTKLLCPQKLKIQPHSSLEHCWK
3',5'-cyclic-AMP phosphodiesterase 4A, sequence (P27815 whole entry): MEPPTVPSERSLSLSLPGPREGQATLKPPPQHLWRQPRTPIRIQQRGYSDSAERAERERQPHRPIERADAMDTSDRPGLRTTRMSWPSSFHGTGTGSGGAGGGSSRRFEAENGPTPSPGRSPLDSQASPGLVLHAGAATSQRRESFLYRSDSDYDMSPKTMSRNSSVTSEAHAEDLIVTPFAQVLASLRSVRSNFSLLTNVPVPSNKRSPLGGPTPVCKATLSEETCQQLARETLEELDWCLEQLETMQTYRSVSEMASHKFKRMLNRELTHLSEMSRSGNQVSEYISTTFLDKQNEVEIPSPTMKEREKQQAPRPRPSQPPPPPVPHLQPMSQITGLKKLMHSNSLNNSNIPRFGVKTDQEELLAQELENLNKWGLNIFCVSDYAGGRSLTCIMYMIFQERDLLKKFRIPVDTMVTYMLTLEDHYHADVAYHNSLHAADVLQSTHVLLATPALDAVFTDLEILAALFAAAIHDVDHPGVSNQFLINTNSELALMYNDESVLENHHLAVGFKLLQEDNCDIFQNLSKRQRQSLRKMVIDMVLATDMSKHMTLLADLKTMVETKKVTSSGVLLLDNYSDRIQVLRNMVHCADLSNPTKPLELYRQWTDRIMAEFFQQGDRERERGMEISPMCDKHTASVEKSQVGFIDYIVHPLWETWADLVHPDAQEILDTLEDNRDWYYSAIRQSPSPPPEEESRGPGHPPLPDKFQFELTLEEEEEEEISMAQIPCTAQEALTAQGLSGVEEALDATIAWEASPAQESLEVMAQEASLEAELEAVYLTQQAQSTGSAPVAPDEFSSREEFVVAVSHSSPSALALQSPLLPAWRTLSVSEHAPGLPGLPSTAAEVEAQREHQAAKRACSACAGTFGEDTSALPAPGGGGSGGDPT

The compound `CC(C)c1c(C(=O)Nc2ccccc2)c(-c2ccccc2)c(-c2ccc(F)cc2)n1CC[C@@H](O)C[C@@H](O)CC(=O)O` [ATORVASTATIN] returned a concentration at half-maximal activity (AC50) in test [1] of more than 30 µM.
Regarding `CC(C)(Oc1ccc(C2CC2(Cl)Cl)cc1)C(=O)O` (configuration not stated) [CIPROFIBRATE], in [1], the AC50 is more than 30 µM.
In turn, `CCN1CCC[C@H]1CNC(=O)c1cc(S(N)(=O)=O)ccc1OC` [LEVOSULPIRIDE] displayed an AC50 in test [2] of more than 30 µM.
Still for that read-out and setting: to `CCCCCCC(C)(C)c1cc(O)c2c(c1)OC(C)(C)C1CCC(=O)CC21` (configuration not stated) [NABILONE] belongs more than 30 µM.
Take `Nc1nc2ccc(OC(F)(F)F)cc2s1` [RILUZOLE]: the AC50 was more than 30 µM in test [3]; more than 30000 nM in test [4]; more than 30 µM in test [5]; more than 30 µM in test [6]; more than 30 µM in [7]; more than 30 µM in [8]. In addition, the AC50 in [9], in [10] and in test [11] was more than 30 µM each time.
In the case of BIVALIRUDIN, the AC50 in test [3] was more than 30 µM; in test [4] it was 9.2 nM; in [5] it was more than 30 µM; in [6], more than 30 µM; in test [7], more than 30 µM; in [8], more than 30 µM. Besides, the AC50 in test [9], in [10] and in [11] was more than 30 µM in each case.

For orientation: AC50 means the concentration at which the activity in the assay is half-maximal. Low values mean activity at low concentration, high ones activity only at high concentration.

These data come from ChEMBL document CHEMBL5291721, “A preclinical secondary pharmacology resource illuminates target-adverse drug reaction associations of marketed drugs” (Nat Commun, 2023).
